Experimental data reported in patent publication US20230123334A1, “AMINO LIPID COMPOUND, PREPARATION METHOD THEREFOR, AND APPLICATION THEREOF” (SHENZHEN SHENXIN BIOTECHNOLOGY CO., LTD., priority 2020, published 2023).

The compounds below were run on HEK293 cells (assay: Preliminary screening as DNA vectors, GFP transfection of HEK293 cells). Details: amino lipid/DOPE liposome with 75 ng plasmid DNA (psin-EGFP-IRES-Puro); number of GFP-expressing cells divided by total nuclei (Hoechst).
Format: cell-based
Outline: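 Lipid + DOPE liposomes (NaOAc, pH 5.6) complexed w/ 75 ng psin-EGFP-IRES-Puro, 30 min RT; added to 3-5×10^4 HEK293/well, 37° C. Hoechst 0.2 μg/mL at 20-24 h, imaged after further 20-24 h. Efficiency = GFP+ cells / total nuclei.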

Going from `CCCCCCCCCCCCCCSc1nc(NCCCCCCCCCCCCC)nc(NCCN(CC)CC)n1` [S14N13 D7] to `CCCCCCCCCCCCCCCCNc1nc(NCCN(CC)CC)nc(SCCCCCCCCCCC)n1` [S11N16 D7], the “Absolute DNA transfection efficiency in HEK293 cells” value (from here on “Absolute DNA transfection efficiency”) falls from 2.8% to 1.7%.

Compared with `CCCCCCCCCCCCCNc1nc(NCCN(C)C)nc(SCCCCCCCCC)n1` [S9N13 D1], `CCCCCCCCCCCCCCCCNc1nc(NCCN(C)C)nc(SCCCCCC)n1` [S6N16 D1] is lower in “Absolute DNA transfection efficiency” value: 25.0% for the first, 6.6% for the second.

Compared with `CCCCCCCCCCCCCCCCNc1nc(NCCCN2CCOCC2)nc(SCCCCCCCCCCCCCCC)n1` [S15N16 D8], `CCCCCCCCCCCCCCCNc1nc(NCCCN2CCOCC2)nc(SCCCCCCCCCCCCCCC)n1` [S15N15 D8] is higher in “Absolute DNA transfection efficiency” value: 0.0% for the first, 0.1% for the second.

Going from `CCCCCCCCCCCCSc1nc(NCCCCCCCCC)nc(NCCN(C)C)n1` [S12N9 D1] to `CCCCCCCCCCCCNc1nc(NCCN(C)C)nc(SCCCCCCCC)n1` [S8N12 D1], the “Absolute DNA transfection efficiency” value rises from 4.5% to 22.1%.

Going from `CCCCCCCCCCCCCCCCSc1nc(NCC2CCN(C)CC2)nc(N(CCCCCCCCCCCC)CCCCCCCCCCCC)n1` [S16^2N12 D10] to `CCCCCCCCCCCCCCCCSc1nc(NCCN2CCN(C)CC2)nc(N(CCCCCCCCCCCC)CCCCCCCCCCCC)n1` [S16^2N12 D5], the “Absolute DNA transfection efficiency” value falls from 0.3% to 0.0%.

Compared with `CCCCCCCCNc1nc(NCCN2CCCCC2)nc(SCCCCCCCC)n1` [S8N8 D4], `CCCCCCCCCCCNc1nc(NCCN2CCCCC2)nc(SCCCCCC)n1` [S6N11 D4] is higher in “Absolute DNA transfection efficiency” value: 2.9% for the first, 3.3% for the second.

First: CCCCCCCCCCCNc1nc(NCCN(C)C)nc(SCCCCCCC)n1 [S7N11 D1]
Second: CCCCCCCCCCCNc1nc(NCCN(C)C)nc(SCCCCCCCC)n1 [S8N11 D1]
The “Absolute DNA transfection efficiency” value of the first is lower: 20.3% for the first, 42.2% for the second.

First: CCCCCCCCCCCCCCCCCCSc1nc(NCCCN2CCOCC2)nc(SCCCCCC)n1 [S6S18 D8]
Second: CCCCCCCCCCCCCCCCCCSc1nc(NCCCCCCC)nc(NCCCN2CCOCC2)n1 [S18N7 D8]
The “Absolute DNA transfection efficiency” value of the first is higher: 15.9% for the first, 3.9% for the second.

Compared with `CCCCCCCCCCCCSc1nc(NCCCCCCCCCCC)nc(NCC2CCN(C)CC2)n1` [S12N11 D10], `CCCCCCCCCCCCCCCSc1nc(NCCCCCCCC)nc(NCC2CCN(C)CC2)n1` [S15N8 D10] is lower in “Absolute DNA transfection efficiency” value: 19.6% for the first, 19.4% for the second.

First: CCCCCCNc1nc(NCC2CCN(C)CC2)nc(SCCCCCC)n1 [S6N6 D10]
Second: CCCCCCCCCCCCNc1nc(NCC2CCN(C)CC2)nc(SCCCCCC)n1 [S6N12 D10]
The “Absolute DNA transfection efficiency” value of the first is lower: 0.0% for the first, 21.3% for the second.

Compared with `CCCCCCCCCCCCCNc1nc(NCCN2CCN(C)CC2)nc(SCCCCCCC)n1` [S7N13 D5], `CCCCCCCCCCCNc1nc(NCCN2CCN(C)CC2)nc(SCCCCCC)n1` [S6N11 D5] is lower in “Absolute DNA transfection efficiency” value: 23.3% for the first, 17.5% for the second.

Compared with `CCCCCCCCCCCCCCCCSc1nc(NCCCCCC)nc(NCCCN2CCN(C)CC2)n1` [S16N6 D9], `CCCCCCCCCCCCCCCCNc1nc(NCCCN2CCN(C)CC2)nc(SCCCCCC)n1` [S6N16 D9] is higher in “Absolute DNA transfection efficiency” value: 9.6% for the first, 20.6% for the second.

First: CCCCCCCCCCCCCCCCCCSc1nc(NCCCCCC)nc(NCCN(CC)CC)n1 [S18N6 D7]
Second: CCCCCCCCCCCCCCCNc1nc(NCCN(CC)CC)nc(SCCCCCCCCCC)n1 [S10N15 D7]
The “Absolute DNA transfection efficiency” value of the first is higher: 10.4% for the first, 1.7% for the second.

Compared with `CCCCCCCCNc1nc(NCCCN2CCOCC2)nc(SCCCCCCCC)n1` [S8N8 D8], `CCCCCCCCCCCCSc1nc(NCCCCCC)nc(NCCN2CCOCC2)n1` [S12N6 D2] is lower in “Absolute DNA transfection efficiency” value: 2.9% for the first, 0.1% for the second.

First: CCCCCCCCCSc1nc(NCCCCCCC)nc(NCCN2CCN(C)CC2)n1 [S9N7 D5]
Second: CCCCCCCCCSc1nc(NCCCCCC)nc(NCCN2CCN(C)CC2)n1 [S9N6 D5]
The “Absolute DNA transfection efficiency” value of the first is lower: 18.3% for the first, 22.4% for the second.

Going from `CCCCCCCCCCCCCCCCCCSc1nc(NCCCCCCCCCCCCCCC)nc(NCCN2CCOCC2)n1` [S18N15 D2] to `CCCCCCCCCCCCCCCNc1nc(NCCN2CCOCC2)nc(SCCCCCCCCCCCCCC)n1` [S14N15 D2], the “Absolute DNA transfection efficiency” value rises from 0.0% to 0.1%.

Compared with `CCCCCCCCCCCNc1nc(NCCN(C)C)nc(SCCCCCC)n1` [S6N11 D1], `CCCCCCCCSc1nc(NCCCCCC)nc(NCCN(C)C)n1` [S8N6 D1] is higher in “Absolute DNA transfection efficiency” value: 1.5% for the first, 3.4% for the second.

Compared with `CCCCCCCCSc1nc(NCCCCCC)nc(NCCCN2CCN(C)CC2)n1` [S8N6 D9], `CCCCCCCCCCCCCCSc1nc(NCCCCCCCC)nc(NCCCN2CCN(C)CC2)n1` [S14N8 D9] is higher in “Absolute DNA transfection efficiency” value: 2.2% for the first, 15.7% for the second.

Compared with `CCCCCCCCCCCCCCCCSc1nc(NCCCCCCCCCCCC)nc(NCCCN(C)C)n1` [S16N12 D6], `CCCCCCCCCCCCCCCCCCSc1nc(NCCCCCCCCCCCC)nc(NCCCN(C)C)n1` [S18N12 D6] is lower in “Absolute DNA transfection efficiency” value: 2.7% for the first, 0.5% for the second.

Going from `CCCCCCCCCCCCCCCCSc1nc(NCCCCCCCCC)nc(NCCN(C)C)n1` [S16N9 D1] to `CCCCCCCCCCCCCCCCSc1nc(NCCCCCCCCC)nc(NCCCN(C)C)n1` [S16N9 D6], the “Absolute DNA transfection efficiency” value rises from 7.5% to 11.7%.

Compared with `CCCCCCCCCCCCCCCCNc1nc(NCCN(C)C)nc(SCCCCCCCCCCCCCCC)n1` [S15N16 D1], `CCCCCCCCCCCCCCCCCCNc1nc(NCCN(C)C)nc(SCCCCCCCCCCCC)n1` [S12N18 D1] is lower in “Absolute DNA transfection efficiency” value: 1.3% for the first, 0.7% for the second.

Compared with `CCCCCCCCCCCCCCSc1nc(NCCCCCC)nc(NCCCN2CCOCC2)n1` [S14N6 D8], `CCCCCCCCCCCCCCCNc1nc(NCCCN2CCOCC2)nc(SCCCCCCCCCCCC)n1` [S12N15 D8] is lower in “Absolute DNA transfection efficiency” value: 13.6% for the first, 0.0% for the second.

Going from `CCCCCCCCCCSc1nc(NCCCCCCCC)nc(NCCN2CCCCC2)n1` [S10N8 D4] to `CCCCCCCCCCSc1nc(NCCCCCCCCC)nc(NCCN2CCCC2)n1` [S10N9 D3], the “Absolute DNA transfection efficiency” value rises from 2.1% to 4.9%.

First: CCCCCCCCCSc1nc(NCCN(C)C)nc(SCCCCCC)n1 [S6S9 D1]
Second: CCCCCCCCSc1nc(NCCN(C)C)nc(SCCCCCC)n1 [S6S8 D1]
The “Absolute DNA transfection efficiency” value of the first is higher: 2.6% for the first, 1.9% for the second.

`CCCCCCCCCCCCCCCCCCNc1nc(NCC2CCN(C)CC2)nc(SCCCCCCCCCCCCCCCCCC)n1` [S18N18 D10] and `CCCCCCCCCCCCCCCCCCNc1nc(NCCN2CCCCC2)nc(SCCCCCCCCCCCCCCCCCC)n1` [S18N18 D4] are the same in “Absolute DNA transfection efficiency” value: 0.0% for the first, 0.0% for the second.

First: CCCCCCCCCCCCCCCCCCNc1nc(NCCCN(C)C)nc(SCCCCCCCCCCCCCCCC)n1 [S16N18 D6]
Second: CCCCCCCCCCCCCCCCCCNc1nc(NCCN2CCCC2)nc(SCCCCCCCCCCCCCCC)n1 [S15N18 D3]
The “Absolute DNA transfection efficiency” value of the first is lower: 0.0% for the first, 0.7% for the second.

First: CCCCCCCCCCCSc1nc(NCCCN(C)C)nc(SCCCCCC)n1 [S6S11 D6]
Second: CCCCCCCCCSc1nc(NCCCN(C)C)nc(SCCCCCCCC)n1 [S8S9 D6]
The “Absolute DNA transfection efficiency” value of the first is higher: 32.1% for the first, 6.3% for the second.

First: CCCCCCCCCCCCCCCCCCNc1nc(NCCN2CCOCC2)nc(SCCCCCCCCCC)n1 [S10N18 D2]
Second: CCCCCCCCCCCCCCCNc1nc(NCCN2CCN(C)CC2)nc(SCCCCCCCCCCCC)n1 [S12N15 D5]
The “Absolute DNA transfection efficiency” value of the first is higher: 2.1% for the first, 0.2% for the second.

Going from `CCCCCCCCCCCCSc1nc(NCCCCCCCCCCC)nc(NCCN(CC)CC)n1` [S12N11 D7] to `CCCCCCCCCCCCCCSc1nc(NCCCCCCCCCCC)nc(NCCN(CC)CC)n1` [S14N11 D7], the “Absolute DNA transfection efficiency” value rises from 5.8% to 8.6%.

First: CCCCCCCCCCCSc1nc(NCCN2CCCCC2)nc(SCCCCCCCC)n1 [S8S11 D4]
Second: CCCCCCCCCCCCCCCCSc1nc(NCCN2CCCCC2)nc(SCCCCCC)n1 [S6S16 D4]
The “Absolute DNA transfection efficiency” value of the first is higher: 8.5% for the first, 7.9% for the second.

`CCCCCCCCCCCCSc1nc(NCCN(C)C)nc(N(CCCCCCCCCCCC)CCCCCCCCCCCC)n1` [S12^2N12 D1] and `CCCCCCCCCCCCCCCSc1nc(NCCN2CCCCC2)nc(N(CCCCCCCCCCCC)CCCCCCCCCCCC)n1` [S15^2N12 D4] are the same in “Absolute DNA transfection efficiency” value: 0.0% for the first, 0.0% for the second.

Going from `CCCCCCCNc1nc(NCCN(CC)CC)nc(SCCCCCCC)n1` [S7N7 D7] to `CCCCCCCNc1nc(NCCN2CCCC2)nc(SCCCCCCC)n1` [S7N7 D3], the “Absolute DNA transfection efficiency” value falls from 11.4% to 9.2%.

First: CCCCCCCCCCCCCCCCNc1nc(NCCN2CCN(C)CC2)nc(SCCCCCCCCCC)n1 [S10N16 D5]
Second: CCCCCCCCCCCCCCCNc1nc(NCCN2CCCC2)nc(SCCCCCCCCC)n1 [S9N15 D3]
The “Absolute DNA transfection efficiency” value of the first is lower: 3.1% for the first, 22.7% for the second.

Compared with `CCCCCCCCCCCSc1nc(NCCCCCC)nc(NCCN2CCCC2)n1` [S11N6 D3], `CCCCCCCCCCCSc1nc(NCCN2CCOCC2)nc(SCCCCCC)n1` [S6S11 D2] is higher in “Absolute DNA transfection efficiency” value: 8.3% for the first, 18.7% for the second.

First: CCCCCCCCCCCSc1nc(NCCN2CCOCC2)nc(SCCCCCCCC)n1 [S8S11 D2]
Second: CCCCCCCSc1nc(NCCCN2CCOCC2)nc(SCCCCCCC)n1 [S7S7 D8]
The “Absolute DNA transfection efficiency” value of the first is higher: 17.9% for the first, 0.6% for the second.

Compared with `CCCCCCCCCCCCCCCNc1nc(NCC2CCN(C)CC2)nc(SCCCCCCCCCC)n1` [S10N15 D10], `CCCCCCCCCCCCCNc1nc(NCC2CCN(C)CC2)nc(SCCCCCCCCC)n1` [S9N13 D10] is higher in “Absolute DNA transfection efficiency” value: 6.9% for the first, 29.4% for the second.

In the case of `CCCCCCCSc1nc(NCCCN2CCOCC2)nc(SCCCCCC)n1` [S6S7 D8], the “Absolute DNA transfection efficiency” value is reported as 0.0%.
